In patent publication US20250019700A1, “TREATING CHEMORESISTANT FORMS OF LEUKEMIA AND OTHER CANCERS THAT OVEREXPRESS RNA BINDING PROTEIN FXR1” (The General Hospital Corporation, priority 2021, published 2025):

Columns and labels:
Type in all cases: cell-based
FXR1 OE cells (THP1) = test: Chemosurvival (fraction of cell viability) of FXR1 OE cells treated with AraC plus inhibitor
Procedure: (§1) THP1 cells were cultured in […] media supplemented with 10% fetal bovine serum (FBS), 2 mM L-Glutamine, 100 μg/mL streptomycin and 100 U/ml penicillin at 37° C. in 5% CO2. SS THP1 cells were prepared by washing with PBS followed by serum-starvation at a density of 2×10^5 cells/mL and AraCS cells, by treatment with indicated concentrations of AraC for indicated periods of time. THP1 (TIB-202) and MV4:11 (CRL-9591) were obtained from ATCC. MOLM13 (ACC554) were obtained from DSMZ. Cell lines kindly provided by David Scadden.
THP1 FXR1 OE cell lines were created by infecting cells with an FXR1 containing retroviral vector for constitutive over expression of FXR1. Corresponding control cell lines were made by infection with empty vector.
(§2) Cytarabine (AraC), Trans-ISRIB, FX-1, and Toyocamycin were obtained from Cayman Chemicals. For polysome analysis, FXR1 OE and control cells were treated with 1 μM trans-ISRIB for 24 h. For cell viability FXR1 OE and control cells were treated individually or with a combination of 5 μM AraC and 1 μM trans-ISRIB for 24 h; 100 nM Toyocamycin and 1 μM AraC; 10 μM FX-1 and 5 μM AraC.

G0 cells (THP1) = test: Chemosurvival of G0 cells treated with ISRIB and AraC; conditions: ISRIB and AraC (FIG. 4H)
Procedure: as §1, §2

[1] = system: FXR1-overexpression cells; test: Polysome analysis followed by qPCR of mRNAs, with or without ISRIB; conditions: FXR1 OE cells, 1 μM trans-ISRIB for 24 h
Procedure: Sucrose was dissolved in lysis buffer containing 100 mM KCl, 5 mM MgCl2, 2 mM DTT and 10 mM Tris-HCl (pH 7.4). Sucrose gradients from 10% to 55% were prepared in ultracentrifuge tubes (Beckman). Harvested cells were rinsed with ice-cold PBS and resuspended in lysis buffer with 1% Triton X-100 and 40 U/mL […] (New England Biolabs) for 20 minutes with intermittent tapping on ice. After centrifugation of cell lysates at 12,000×g for 20 minutes, supernatants were loaded onto sucrose gradients followed by ultracentrifugation (Beckman Coulter Optima L90) at 32,500×rpm at 4° C. for 80 min in the SW40 rotor. Samples were separated by density gradient fractionation system (Biocomp Piston Gradient Fractionation). RNAs were purified by using TRIzol (Invitrogen) from heavy polysome fractions and whole cell lysates. The synthesized cDNA probes from WT Expression Kit (Ambion) were hybridized to Gene Chip Human Transcriptome Array 2.0 (Affymetrix) and analyzed by the Partners Healthcare Center for Personalized Genetic Medicine Microarray and BUMC facilities. Gene ontology analysis for differentially expressed translatome or proteome was conducted by DAVID 6.7 tools. Molecular signatures enriched in FXR1 OE and Control cells were identified by Gene Set Enrichment Analysis (GSEA).
Total RNA was isolated using TRIzol (Invitrogen) according to the manufacturer's instructions. […]

ATF4 = test: Western blot of non-canonical translation target ATF4 with ISRIB; conditions: in the presence of ISRIB
Procedure: (§3) Cells were collected and resuspended in lysis buffer containing 40 mM Tris-HCl (pH 7.4), 6 mM MgCl2, 150 mM NaCl, 0.1% NP-40, 1 mM DTT, […], 17.5 mM β-glycerophosphate, 5 mM NaF and protease inhibitors. Samples containing 80 μg of protein were loaded onto 4%-20% gradient SDS-PAGE (Bio-Rad) or 16% SDS-PAGE (Invitrogen), transferred to PVDF membranes and processed for immunoblotting.

FXR1 = test: Western blot of FXR1 levels in AraC treated THP1 cells; conditions: AraC treated surviving THP1 cells compared to untreated (1 μM AraC, FIG. 1A)
Procedure: as §1, §3
Antibodies against FXR1 (used for Western), Actin, Tubulin were from Millipore; NOLC1, DDX21, PolR1D, RPLP0, RPLP2, RPL29, RPL11, FXR1 (used for Immunoprecipitation) were from Protein Tech; PKR, P—PKR, EIF2α, P-EIF2α, GCN2 (used for immunoprecipitation) were from Cell Signaling; P-GCN2, GCN2 (used for Western) were from abcam.

PKR = test: Western blot of phosphorylated PKR in AraC treated cells; conditions: AraC treated cells (0, 1, 5 μM AraC), normalized to total PKR
Procedure: Cells were collected and resuspended in lysis buffer containing 40 mM Tris-HCl (pH 7.4), 6 mM MgCl2, 150 mM NaCl, 0.1% NP-40, 1 mM DTT, 20 mM, 17.5 mM β-glycerophosphate, 5 mM NaF and protease inhibitors. Samples containing 80 μg of protein were loaded onto 4%-20% gradient SDS-PAGE (Bio-Rad) or 16% SDS-PAGE (Invitrogen), transferred to PVDF membranes and processed for immunoblotting. Antibodies against FXR1 (used for Western), Actin, Tubulin were from Millipore; NOLC1, DDX21, PolR1D, RPLP0, RPLP2, RPL29, RPL11, FXR1 (used for Immunoprecipitation) were from Protein Tech; PKR, P—PKR, EIF2α, P-EIF2α, GCN2 (used for immunoprecipitation) were from Cell Signaling; P-GCN2, GCN2 (used for Western) were from abcam.

[2] = system: 28S rRNA snoRA22 sites U4966 and U4975; test: Low dNTP CMCT qPCR assay of rRNA pseudouridylation; conditions: AraC cells (THP1)
Procedure: For analysis of 2′O-methylation, RNA was prepared from indicated cells. Reverse transcription (as described above in qPCR) was performed with primers in the reverse orientation from the modification site on ribosomal RNA. Two different dNTP concentrations were used for each primer, low (0.025 mM) and high (2.5 mM). qPCR was done with the resulting cDNA using primers at forward and reverse orientation to the modified sites. Fold change in modification was calculated based on difference of Ct values in the low and high dNTP conditions. For analyzing pseudouridylation, first the RNA was treated with CMCT (1-cyclohexyl-(2-morpholinoethyl) carbodiimide metho-p-toluene sulfonate) under alkaline conditions. Rest of the experiment was done as described above for 2′O-methylation.

SMILES: N#Cc1cn([C@@H]2O[C@H](CO)[C@@H](O)[C@H]2O)c2ncnc(N)c12 [Toyocamycin]
- chemosurvival (FXR1 OE cells (THP1); 100 nM Toyocamycin and 1 μM AraC, FXR1 OE and control cells (FIG. 4I)): decreased

SMILES: O=C(COc1ccc(Cl)cc1)NC1CCC(NC(=O)COc2ccc(Cl)cc2)CC1 (stereo not drawn) [ISRIB]
- chemosurvival (FXR1 OE cells (THP1); FXR1 OE cells, 1 μM trans-ISRIB combined with 5 μM AraC, 24 h, compared to buffer and AraC): reduced chemosurvival
- chemosurvival (G0 cells (THP1)): reduced chemosurvival
- polysome association of mRNAs that are upregulated in FXR1-overexpressing cells [1]: reduced polysome association
- polysome association of other genes like vinculin [1]: without affecting
- level of known non-canonical targets such as ATF4 (ATF4): decrease

SMILES: Nc1ccn([C@@H]2O[C@H](CO)[C@@H](O)[C@@H]2O)c(=O)n1 [AraC, Cytarabine]
- FXR1 protein level (FXR1): increases
- phosphorylation and activation of PKR (PKR): increased phosphorylation and activation
- rRNA pseudouridylation at snoRA22 sites on 28S at U4966 and U4975 [2]: increases
